Converted amounts (≈) assume the structure as drawn.

As a reminder, the MIC is the lowest concentration found to suppress growth.

For the first assay, the system named is Mycobacterium tuberculosis H37Rv. In words: Alamar blue (MABA) test, MIC on Mycobacterium tuberculosis H37Rv. The format is cell-based. The following applies: H37RV, read-out: MIC (μM) MTb H37Rv.
Consider `CON=C1C[C@@H](C)O[C@@H](O[C@@H]2[C@@H](C)[C@H](O[C@H]3C[C@@H](C)N(C)C[C@H](C)O3)[C@@H](C)C(=O)O[C@H](C(C)CO[C@@H]3O[C@H](C)[C@@H](O)[C@@H](OC)[C@H]3OC)[C@H](C)[C@@H](OC(=O)CC(C)C)[C@@H](C)C(=O)[C@@](C)(OC(=O)N(C)C)C[C@@H]2C)[C@@H]1O` (stereo partly drawn) [Compound 3, (2R,3S,4R,5R,7S,9S,10S,11R,12S,13R)-7-[(dimethylcarbamoyl)oxy]-2-(1-{[(2R,3R,4R,5R,6R)-5-hydroxy-3,4-dimethoxy-6-methyltetrahydro-2H-pyran-2-yl]oxy}propan-2-yl)-10-{[(2S,3R,6R)-3-hydroxy-4-(methoxyimino)-6-methyltetrahydro-2H-pyran-2-yl]oxy}-3,5,7,9,11,13-hexamethyl-6,14-dioxo-12-{[(2S,5R,7R)-2,4,5-trimethyl-1,4-oxazepan-7-yl]oxy}oxacyclotetradecan-4-yl 3-methylbutanoate], for which the MIC stood at 1.27 µM (≈ 1.35 µg/mL).

Still in this assay, the particulars now being: minimum inhibitory concentration, Alamar blue, strain H37Rv, read-out: MIC (μM) MTb H37Rv.
Consider `CON=C1C[C@@H](C)O[C@@H](O[C@@H]2[C@@H](C)[C@H](O[C@H]3C[C@@H](C)N(C)C[C@H](C)O3)[C@@H](C)C(=O)O[C@H](C(C)CO[C@@H]3O[C@H](C)[C@@H](O)[C@@H](OC)[C@H]3OC)[C@H](C)[C@@H](OC(=O)CC(C)C)[C@@H](C)C(=O)[C@@](C)(O)C[C@@H]2C)[C@@H]1O` (single isomer, unassigned) [Compound 1-a], for which the MIC is 2.05 µM (≈ 2.03 µg/mL).
Still for that read-out and setting: the value for `CON=C1C[C@@H](C)O[C@@H](O[C@@H]2[C@@H](C)[C@H](O[C@H]3C[C@@H](C)N(C)C[C@H](C)O3)[C@@H](C)C(=O)O[C@H](C(C)CO[C@@H]3O[C@H](C)[C@@H](O)[C@@H](OC)[C@H]3OC)[C@H](C)[C@@H](OC(=O)CC(C)C)[C@@H](C)C(=O)[C@@](C)(OC(=O)NC(C)(C)CNS(=O)(=O)c3ccccc3[N+](=O)[O-])C[C@@H]2C)[C@@H]1O` (single isomer, unassigned) [Compound 5-a] was 0.34 µM (≈ 0.438 µg/mL); that for `CON=C1C[C@@H](C)O[C@@H](O[C@@H]2[C@@H](C)[C@H](O[C@H]3C[C@H](C)N(C)C[C@H](C)O3)[C@@H](C)C(=O)O[C@H](C(C)CO[C@@H]3O[C@H](C)[C@@H](O)[C@@H](OC)[C@H]3OC)[C@H](C)[C@@H](OC(=O)CC(C)C)[C@@H](C)C(=O)[C@@](C)(OC(=O)NC(C)(C)CNS(=O)(=O)c3ccccc3[N+](=O)[O-])C[C@@H]2C)[C@@H]1O` (single isomer, unassigned) [Compound 5-b] was 0.53 µM (≈ 0.683 µg/mL).
Still for that read-out and setting: the value for `CON=C1C[C@@H](C)O[C@@H](O[C@@H]2[C@@H](C)[C@H](O[C@H]3C[C@@H](C)N(C)C[C@H](C)O3)[C@@H](C)C(=O)O[C@H](C(C)CO[C@@H]3O[C@H](C)[C@@H](O)[C@@H](OC)[C@H]3OC)[C@H](C)[C@@H](OC(=O)CC(C)C)[C@@H](C)C(=O)[C@@](C)(OC(=O)NCc3ccccc3)C[C@@H]2C)[C@@H]1O` (single isomer, unassigned) [Compound 7-a] was 0.54 µM (≈ 0.606 µg/mL); that for `CON=C1C[C@@H](C)O[C@@H](O[C@@H]2[C@@H](C)[C@H](O[C@H]3C[C@H](C)N(C)C[C@H](C)O3)[C@@H](C)C(=O)O[C@H](C(C)CO[C@@H]3O[C@H](C)[C@@H](O)[C@@H](OC)[C@H]3OC)[C@H](C)[C@@H](OC(=O)CC(C)C)[C@@H](C)C(=O)[C@@](C)(OC(=O)NCc3ccccc3)C[C@@H]2C)[C@@H]1O` (single isomer, unassigned) [Compound 7-b] was 0.52 µM (≈ 0.584 µg/mL).
With `CON=C1C[C@@H](C)O[C@@H](O[C@@H]2[C@@H](C)[C@H](O[C@H]3CC(C)N(C)C[C@H](C)O3)[C@@H](C)C(=O)O[C@H](C(C)CO[C@@H]3O[C@H](C)[C@@H](O)[C@@H](OC)[C@H]3OC)[C@H](C)[C@@H](OC(=O)CC(C)C)[C@@H](C)C(=O)[C@@](C)(OC(=O)NC(C)(C)CNS(=O)(=O)c3cn[nH]c3[N+](=O)[O-])C[C@@H]2C)[C@@H]1O` (stereo partly drawn) [Compound 4], the MIC stood at 0.21 µM (≈ 0.268 µg/mL).
Same read-out and setting: for `CON=C1C[C@@H](C)O[C@@H](O[C@@H]2[C@@H](C)[C@H](O[C@H]3CC(C)N(CCF)C[C@H](C)O3)[C@@H](C)C(=O)O[C@H](C(C)CO[C@@H]3O[C@H](C)[C@@H](O)[C@@H](OC)[C@H]3OC)[C@H](C)[C@@H](OC(=O)CC(C)C)[C@@H](C)C(=O)[C@@](C)(OC(=O)NCc3ccccc3)C[C@@H]2C)[C@@H]1O` (stereo partly drawn) [Compound 6, (2R,3S,4R,5R,7S,9S,10S,11R,12S,13R)-7-[(benzylcarbamoyl)oxy]-12-{[(2S,7R)-4-(2-fluoroethyl)-2,5-dimethyl-1,4-oxazepan-7-yl]oxy}-2-(1-{[(2R,3R,4R,5R,6R)-5-hydroxy-3,4-dimethoxy-6-methyltetrahydro-2H-pyran-2-yl]oxy}propan-2-yl)-10-{[(2S,3R,6R)-3-hydroxy-4-(methoxyimino)-6-methyltetrahydro-2H-pyran-2-yl]oxy}-3,5,7,9,11,13-hexamethyl-6,14-dioxooxacyclotetradecan-4-yl 3-methylbutanoate] the value was 0.91 µM (≈ 1.05 µg/mL).
As to `CON=C1C[C@@H](C)O[C@@H](O[C@@H]2[C@@H](C)[C@H](O[C@H]3C[C@H](C)N(CC(C)(C)O)C[C@H](C)O3)[C@@H](C)C(=O)O[C@H]([C@@H](C)CO[C@@H]3O[C@H](C)[C@@H](O)[C@@H](OC)[C@H]3OC)[C@H](C)[C@@H](OC(=O)CC(C)C)[C@@H](C)C(=O)[C@@](C)(OC(=O)NCc3ccccc3)C[C@@H]2C)[C@@H]1O` [Compound 11], the MIC came to 0.63 µM (≈ 0.744 µg/mL).
In the case of `CON=C1C[C@@H](C)O[C@@H](O[C@@H]2[C@@H](C)[C@H](O[C@H]3C[C@@H](C)N(CC(C)(C)O)C[C@H](C)O3)[C@@H](C)C(=O)O[C@H]([C@@H](C)CO[C@@H]3O[C@H](C)[C@@H](O)[C@@H](OC)[C@H]3OC)[C@H](C)[C@@H](OC(=O)CC(C)C)[C@@H](C)C(=O)[C@@](C)(OC(=O)NCc3ccccc3)C[C@@H]2C)[C@@H]1O` [Compound 12], the MIC is 0.6 µM (≈ 0.708 µg/mL).
Still for that read-out and setting: for `CON=C1C[C@@H](C)O[C@@H](O[C@@H]2[C@@H](C)[C@H](O[C@H]3CC(C)N(CC(=O)Nc4ccc5ccc(C)nc5n4)C[C@H](C)O3)[C@@H](C)C(=O)O[C@H]([C@@H](C)CO[C@@H]3O[C@H](C)[C@@H](O)[C@@H](OC)[C@H]3OC)[C@H](C)[C@@H](OC(=O)CC(C)C)[C@@H](C)C(=O)[C@@](C)(OC(=O)NCc3ccccc3)C[C@@H]2C)[C@@H]1O` (stereo partly drawn) [Compound 51] the value was 0.29 µM (≈ 0.379 µg/mL); for `CON=C1C[C@@H](C)O[C@@H](O[C@@H]2[C@@H](C)[C@H](O[C@H]3C[C@@H](C)N(C)CC(C)O3)[C@@H](C)C(=O)O[C@H]([C@@H](C)CO[C@@H]3O[C@H](C)[C@@H](O)[C@@H](OC)[C@H]3OC)[C@H](C)[C@@H](OC(=O)CC(C)C)[C@@H](C)C(=O)[C@@](C)(OC(=O)NC(C)(C)CNS(=O)(=O)c3ccccc3)C[C@@H]2C)[C@@H]1O` (stereo partly drawn) [Compound 70], 0.46 µM (≈ 0.572 µg/mL).

(Values after US20150210729A1, “MACROLIDE DERIVATIVES, PREPARATION THEREOF AND THERAPEUTIC USE THEREOF” (priority 2012, published 2015).)
